Converted amounts (≈) assume the structure as drawn.

The assay concerns Mycolicibacterium smegmatis. Put plainly: Antimycobacterial activity against PknGMsm-deficient Mycobacterium smegmatis harboring PknG Mtb gene by Etest method. The format is functional.
Usually MIC stands for the lowest concentration found to suppress growth. As for `CO[C@H]1/C=C/O[C@@]2(C)Oc3c(C)c(O)c4c(O)c(c(/C=N/N5CCN(C)CC5)c(O)c4c3C2=O)NC(=O)/C(C)=C\C=C\[C@H](C)[C@H](O)[C@@H](C)[C@@H](O)[C@@H](C)[C@H](OC(C)=O)[C@@H]1C` [RIFAMPIN], the MIC is > 32 µg/mL. With `CN[C@H](CC(C)C)C(=O)N[C@H]1C(=O)N[C@@H](CC(N)=O)C(=O)N[C@H]2C(=O)N[C@H]3C(=O)N[C@H](C(=O)N[C@H](C(=O)O)c4cc(O)cc(O)c4-c4cc3ccc4O)[C@H](O)c3ccc(c(Cl)c3)Oc3cc2cc(c3O[C@@H]2O[C@H](CO)[C@@H](O)[C@H](O)[C@H]2O[C@H]2C[C@](C)(N)[C@H](O)[C@H](C)O2)Oc2ccc(cc2Cl)[C@H]1O` [VANCOMYCIN], the lowest concentration to inhibit growth (MIC) was 48 µg/mL (≈ 33.1 µM). `CC[C@H]1OC(=O)[C@H](C)[C@@H](O[C@H]2C[C@@](C)(OC)[C@@H](O)[C@H](C)O2)[C@H](C)[C@@H](O[C@@H]2O[C@H](C)C[C@H](N(C)C)[C@H]2O)[C@](C)(O)C[C@@H](C)C(=O)[C@H](C)[C@@H](O)[C@]1(C)O` [ERYTHROMYCIN] gave an MIC of 32 µg/mL (≈ 43.6 µM). As for `C[C@@H](O)[C@H]1C(=O)N2C(C(=O)O)=C(SCCNC=N)C[C@H]12` [IMIPENEM ANHYDROUS], the figure is 6 µg/mL (≈ 20 µM); as for `CC[C@@H](CO)NCCN[C@@H](CC)CO` [ETHAMBUTOL], 0.25 µg/mL (≈ 1.22 µM).

(Values after ChEMBL document CHEMBL1649573, “Protein kinase G is required for intrinsic antibiotic resistance in mycobacteria” (2009).)
